# Assay results from patent US20150065345A1, “1,2,4 - TRIAZOLE DERIVATIVES AS HERBICIDALS” (SYNGENTA LIMITED, priority 2012, published 2015).
# Experiments:
# Type in all cases: in vivo
# [1] = test system: Alopecurus myosuroides (ALOMY); experiment: Glasshouse herbicide test, pre-emergence; conditions: 1000 g/h, evaluated after 13 days, five point scale
# Method: (§1) Seeds of a variety of test species are sown in standard soil in pots Alopecurus myosuroides (ALOMY), Amaranthus retoflexus (AMARE), Setaria faberi (SETFA), Echinochloa crus-galli (ECHCG), Lolium perenne (LOLPE), Solanum nigrum (SOLNI), Stellaria media (STEME) and Digitaria sanguinalis (DIGSA). After cultivation for one day (pre-emergence) or after 8 days cultivation (post-emergence) under controlled conditions in a glasshouse (at 24/16° C., day/night; 14 hours light; 65% humidity), the plants are sprayed with an aqueous spray solution derived from the formulation of the technical active ingredient in acetone/water (50:50) solution containing 0.5% Tween 20 (polyoxyethelyene sorbitan monolaurate, CAS RN 9005-64-5). Compounds are applied at 1000 g/h. The test plants are then grown in a glasshouse under controlled conditions in a glasshouse (at 24/16° C., day/night; 14 hours light; 65% humidity) and watered twice daily. After 13 days for pre and post-emergence, the test is evaluated for the percentage damage caused to the plant. The biological activities are shown in the following table on a five point scale (5=80-100%; 4=60-79%; 3=40-59%; 2=20-39%; 1=0-19%).
# [2] = test system: Echinochloa crus-galli (ECHCG); experiment: Glasshouse herbicide test, pre-emergence; conditions: 1000 g/h, evaluated after 13 days, five point scale
# Method: as §1
# Solanum nigrum (SOLNI) [3] = experiment: Glasshouse herbicide test, pre-emergence; conditions: 1000 g/h, evaluated after 13 days, five point scale
# Method: as §1
# [4] = test system: Amaranthus retoflexus (AMARE); experiment: Glasshouse herbicide test, pre-emergence; conditions: 1000 g/h, evaluated after 13 days, five point scale, second table
# Method: as §1
# IPOHE [5] = experiment: Glasshouse herbicide test, pre-emergence; conditions: 1000 g/h, evaluated after 13 days, five point scale
# Method: [The procedure below names another species; the source lists this species under the same test.] as §1
# Setaria faberi (SETFA) [6] = experiment: Glasshouse herbicide test, pre-emergence; conditions: 1000 g/h, evaluated after 13 days, five point scale
# Method: as §1
# [7] = test system: Alopecurus myosuroides (ALOMY); experiment: Glasshouse herbicide test, post-emergence; conditions: 1000 g/h, evaluated after 13 days, five point scale
# Method: as §1
# [8] = test system: Echinochloa crus-galli (ECHCG); experiment: Glasshouse herbicide test, post-emergence; conditions: 1000 g/h, evaluated after 13 days, five point scale
# Method: as §1
# Solanum nigrum (SOLNI) [9] = experiment: Glasshouse herbicide test, post-emergence; conditions: 1000 g/h, evaluated after 13 days, five point scale
# Method: as §1
# [10] = test system: Amaranthus retoflexus (AMARE); experiment: Glasshouse herbicide test, post-emergence; conditions: 1000 g/h, evaluated after 13 days, five point scale, second table
# Method: as §1
# IPOHE [11] = experiment: Glasshouse herbicide test, post-emergence; conditions: 1000 g/h, evaluated after 13 days, five point scale
# Method: [The procedure below names another species; the source lists this species under the same test.] as §1
# Setaria faberi (SETFA) [12] = experiment: Glasshouse herbicide test, post-emergence; conditions: 1000 g/h, evaluated after 13 days, five point scale
# Method: as §1
Compound,"percentage damage caused to the plant, ALOMY, PRE Application [1]","percentage damage caused to the plant, ECHCG, PRE Application [2]","percentage damage caused to the plant, SOLNI, PRE Application (Solanum nigrum (SOLNI) [3])","percentage damage caused to the plant, AMARE, PRE Application [4]","percentage damage caused to the plant, IPOHE, PRE Application (IPOHE [5])","percentage damage caused to the plant, SETFA, PRE Application (Setaria faberi (SETFA) [6])","percentage damage caused to the plant, ALOMY, POST Application [7]","percentage damage caused to the plant, ECHCG, POST Application [8]","percentage damage caused to the plant, SOLNI, POST Application (Solanum nigrum (SOLNI) [9])","percentage damage caused to the plant, AMARE, POST Application [10]","percentage damage caused to the plant, IPOHE, POST Application (IPOHE [11])","percentage damage caused to the plant, SETFA, POST Application (Setaria faberi (SETFA) [12])"
Cn1cnnc1NC(=O)c1ccc(C(F)(F)F)cc1S(C)(=O)=O [Compound 1.008],2 (2=20-39%),5 (5=80-100%),5 (5=80-100%),5 (5=80-100%),4 (4=60-79%),3 (3=40-59%),3 (3=40-59%),4 (4=60-79%),5 (5=80-100%),5 (5=80-100%),5 (5=80-100%),3 (3=40-59%)
Cc1nnc(NC(=O)c2ccc(C(F)(F)F)cc2S(C)(=O)=O)n1C [Compound 1.009],1 (1=0-19%),1 (1=0-19%),2 (2=20-39%),4 (4=60-79%),1 (1=0-19%),1 (1=0-19%),2 (2=20-39%),1 (1=0-19%),4 (4=60-79%),2 (2=20-39%),3 (3=40-59%),1 (1=0-19%)
CCc1nnc(NC(=O)c2ccc(C(F)(F)F)cc2S(C)(=O)=O)n1C [Compound 1.010],1 (1=0-19%),1 (1=0-19%),1 (1=0-19%),1 (1=0-19%),1 (1=0-19%),1 (1=0-19%),2 (2=20-39%),2 (2=20-39%),2 (2=20-39%),1 (1=0-19%),2 (2=20-39%),2 (2=20-39%)
CCn1cnnc1NC(=O)c1ccc(C(F)(F)F)cc1S(C)(=O)=O [Compound 1.011],1 (1=0-19%),4 (4=60-79%),5 (5=80-100%),5 (5=80-100%),4 (4=60-79%),2 (2=20-39%),2 (2=20-39%),4 (4=60-79%),5 (5=80-100%),5 (5=80-100%),5 (5=80-100%),2 (2=20-39%)
CCc1nnc(NC(=O)c2ccc(S(C)(=O)=O)c(COCC(F)(F)F)c2Cl)n1C [Compound 1.013],1 (1=0-19%),1 (1=0-19%),1 (1=0-19%),1 (1=0-19%),1 (1=0-19%),1 (1=0-19%),2 (2=20-39%),1 (1=0-19%),2 (2=20-39%),1 (1=0-19%),1 (1=0-19%),1 (1=0-19%)
CCn1cnnc1NC(=O)c1ccc(S(C)(=O)=O)c(COCC(F)(F)F)c1Cl [Compound 1.014],5 (5=80-100%),5 (5=80-100%),5 (5=80-100%),5 (5=80-100%),5 (5=80-100%),5 (5=80-100%),5 (5=80-100%),5 (5=80-100%),5 (5=80-100%),5 (5=80-100%),5 (5=80-100%),5 (5=80-100%)
CCn1c(C)nnc1NC(=O)c1ccc(S(C)(=O)=O)c(COCC(F)(F)F)c1Cl [Compound 1.015],1 (1=0-19%),1 (1=0-19%),4 (4=60-79%),4 (4=60-79%),2 (2=20-39%),1 (1=0-19%),2 (2=20-39%),2 (2=20-39%),4 (4=60-79%),4 (4=60-79%),4 (4=60-79%),1 (1=0-19%)
Cn1cnnc1NC(=O)c1cc(F)c(F)cc1[N+](=O)[O-] [Compound 2.003],1 (1=0-19%),1 (1=0-19%),1 (1=0-19%),1 (1=0-19%),1 (1=0-19%),1 (1=0-19%),1 (1=0-19%),1 (1=0-19%),1 (1=0-19%),1 (1=0-19%),1 (1=0-19%),1 (1=0-19%)
Cc1ccc([N+](=O)[O-])c(C(=O)Nc2nncn2C)c1 [Compound 2.005],1 (1=0-19%),1 (1=0-19%),2 (2=20-39%),2 (2=20-39%),3 (3=40-59%),1 (1=0-19%),1 (1=0-19%),1 (1=0-19%),4 (4=60-79%),4 (4=60-79%),4 (4=60-79%),1 (1=0-19%)
